Reference: US9844536B2, “3-(1H-imidazo[4,5-C]pyridin-2-yl)-1H-pyrazolo[3,4-C]pyridine and therapeutic uses thereof” (Samumed, LLC, priority 2014, dated 2017)

Key:
[1] = tested on: Wnt pathway (Sp5-Luc reporter, SW480 cells); assay: Sp5-Luc reporter gene screening assay for Wnt activity in SW480 colon carcinoma cells; format: cell-based; details: Homo sapiens
From the text: The screening assay for Wnt activity is described as follows. Reporter cell lines can be generated by stably transducing cancer cell lines (e.g., colon cancer) or primary cells (e.g., IEC-6 intestinal cells) with a lentiviral construct that includes a Wnt-responsive promoter driving expression of the firefly luciferase gene.
SW480 colon carcinoma cells were transduced with a lentiviral vector expressing luciferase with a human Sp5 promoter consisting of a sequence of eight TCF/LEF binding sites. SW480 cells stably expressing the Sp5-Luc reporter gene and a hygromycin resistance gene were selected by treatment with 150 μg/ml of hygromycin for 7 days. These stably transduced SW480 cells were expanded in cell culture and used for all further screening activities. For Sp5-Luc reporter gene assays, the cells were plated at 10,000 cells/well in 96-well plates with growth medium containing 10% fetal calf serum and incubated overnight at 37° C. and 5% CO2. Each compound was dissolved in DMSO as a 10 mM stock in standard j-vials and used to prepare compound source plates in dose-response format with 3-fold serial dilutions and a 10 mM top concentration. Compound transfer from serially diluted source plates to assay plates containing the cells was accomplished using a pintool (Multimek 96, Beckman equipped with V&P Scientific FP1S50H pins) based liquid handling protocol. This protocol used a slotted pin to transfer 50 nl of compound from a source plate well to an assay plate well containing 50 μl of cells in growth medium. […] Control wells received 50 nl of DMSO treatment for normalization and calculating IC50 values. The treated cells were incubated at 37° C. and 5% CO2 for an additional forty-two hours. Following incubation, the growth medium was removed and 50 μl of BrightGlo luminescence reagent (Promega) was added to each well of the 96-well assay plates. The plates were placed on an orbital shaker for 5 min and then luminescence was quantified on the Victor3 (Perkin Elmer) plate reader. Readings were normalized to DMSO only treated cells, and normalized activities were utilized for IC50 calculations using the dose-response log (inhibitor) vs. response-variable slope (four parameters) nonlinear regression feature available in GraphPad Prism 5.0 or 6.0.

[2] = tested on: LL29 cells; assay: Inhibition of the fibrotic process (αSMA staining) in TGF-β1 treated primary human fibroblasts from IPF patients; format: cell-based; details: Fibroblast, 96 h, TGF-β1 20 ng/mL, 4 days, dose-response 10 μM to 1.87 nM, read-out: Inhibition of fibrosis EC50
From the text: The above synthesized compounds were screened using primary human fibroblasts (derived from IPF patients) treated with TGF-β1 to determine their ability to inhibit the fibrotic process.
Primary human fibroblasts derived from IPF patients (LL29 cells) [^1Xiaoqiu Liu, et. al., “Fibrotic Lung Fibroblasts Show Blunted Inhibition by cAMP Due to Deficient cAMP Response Element-Binding Protein Phosphorylation”, Journal of Pharmacology and Experimental Therapeutics (2005), 315(2), 678-687; ^2Watts, K. L., et. al., “RhoA signaling modulates cyclin D1 expression in human lung fibroblasts; implications for idiopathic pulmonary fibrosis”, Respiratory Research (2006), 7(1), 88] were obtained from American Type Culture Collection (ATCC) and expanded in F12 medium supplemented with 15% Fetal Bovine Serum and Penicillin/Streptomycin.
Each compound was dissolved in DMSO as a 10 mM stock and used to prepare compound source plates. Serial dilution (1:2, 11-point dose-response curves from 10 μM to 1.87 nM) and compound transfer was performed using the ECHO 550 (Labcyte, Sunnyvale, Calif.) into 384-well clear bottom assay plates (Greiner Bio-One) with appropriate DMSO backfill for a final DMSO concentration of 0.1%. LL29 cells were plated at 1,500 cells/well in 80 μl/well F12 medium supplemented with 1% Fetal Bovine Serum. One hour after addition of the cells, TGF-β1 (Peprotech; 20 ng/mL) was added to the plates to induce fibrosis (ref. 1 and 2 above). Wells treated with TGF-β1 and containing DMSO were used as controls. Cells were incubated at 37° C. and 5% CO2 for 4 days. Following incubation for 4 days, SYTOX green nucleic acid stain (Life Technologies [Thermo Fisher Scientific]) was added to the wells at a final concentration of 1 uM and incubated at room temperature for 30 min. Cells were then fixed using 4% formaldehyde (Electron Microscopy Sciences), washed 3 times with PBS followed by blocking and permeabilization using 3% Bovine Serum Albumin (BSA; Sigma) and 0.3% Triton X-100 (Sigma) in PBS. Cells were then stained with antibody specific to α-smooth muscle actin (αSMA; Abcam) (ref. 1 and 2 above) in 3% Bovine Serum Albumin (BSA; Sigma) and 0.3% Triton X-100 (Sigma) in PBS, and incubated overnight at 4° C. Cells were then washed 3 times with PBS, followed by incubation with Alexa Flor-647 conjugated secondary antibody (Life Technologies [Thermo Fisher Scientific]) and DAPI at room temperature for 1 hour. Cells were then washed 3 times with PBS and plates were sealed for imaging. αSMA staining was imaged by excitation at 630 nm and emission at 665 nm and quantified using the Compartmental Analysis program on the CellInsight CX5 (Thermo Scientific). Dead or apoptotic cells were excluded from analysis based on positive SYTOX green staining. % of total cells positive for αSMA were counted in each well and normalized to the average of 11 wells treated with TGF-31 on the same plate using Dotmatics' Studies Software. The normalized averages (fold change over untreated) of 3 replicate wells for each compound concentration were used to create dose-responses curves and EC50 values were calculated using non-linear regression curve fit in the Dotmatics' Studies Software. The EC50 values are reported.

Compound | IC50 [1] | EC50 [2]
CN(C)c1cncc(-c2cc3c(-c4nc5c(-c6cccc(F)c6)nccc5[nH]4)n[nH]c3cn2)c1 [Compound 7, 5-(3-(4-(3-Fluorophenyl)-1H-imidazo[4,5-c]pyridin-2-yl)-1H-pyrazolo[3,4-c]pyridin-5-yl)-N,N-dimethylpyridin-3-amine] | 11.4 nM | ≤ 9 nM
CN(C)Cc1cncc(-c2cc3c(-c4nc5c(-c6cccc(F)c6)nccc5[nH]4)n[nH]c3cn2)c1 [Compound 13, 1-(5-(3-(4-(3-Fluorophenyl)-1H-imidazo[4,5-c]pyridin-2-yl)-1H-pyrazolo[3,4-c]pyridin-5-yl)pyridin-3-yl)-N,N-dimethylmethanamine] | 157 nM | 1660 nM
O=C(Nc1cncc(-c2cc3c(-c4nc5c(-c6cccc(F)c6)nccc5[nH]4)n[nH]c3cn2)c1)C1CC1 [Compound 19, N-(5-(3-(4-(3-Fluorophenyl)-1H-imidazo[4,5-c]pyridin-2-yl)-1H-pyrazolo[3,4-c]pyridin-5-yl)pyridin-3-yl)cyclopropanecarboxamide] | 25.6 nM | ≤ 9 nM
Fc1cccc(-c2nccc3[nH]c(-c4n[nH]c5cnc(-c6cncc(CN7CCC(F)(F)C7)c6)cc45)nc23)c1 [Compound 25, 5-(5-((3,3-Difluoropyrrolidin-1-yl)methyl)pyridin-3-yl)-3-(4-(3-fluorophenyl)-1H-imidazo[4,5-c]pyridin-2-yl)-1H-pyrazolo[3,4-c]pyridine] | 30.8 nM | 185 nM
CC(C)CC(=O)Nc1cncc(-c2cc3c(-c4nc5c(-c6ccc(F)cc6)nccc5[nH]4)n[nH]c3cn2)c1 [Compound 28, N-(5-(3-(4-(4-Fluorophenyl)-1H-imidazo[4,5-c]pyridin-2-yl)-1H-pyrazolo[3,4-c]pyridin-5-yl)pyridin-3-yl)-3-methylbutanamide] | 174 nM | 553 nM
CC(C)(C)C(=O)Nc1cncc(-c2cc3c(-c4nc5c(-c6ccc(F)cc6)nccc5[nH]4)n[nH]c3cn2)c1 [Compound 34, N-(5-(3-(4-(4-Fluorophenyl)-1H-imidazo[4,5-c]pyridin-2-yl)-1H-pyrazolo[3,4-c]pyridin-5-yl)pyridin-3-yl)pivalamide] | 50.9 nM | 515 nM
Fc1ccc(-c2nccc3[nH]c(-c4n[nH]c5cnc(-c6cncc(CN7CCCC7)c6)cc45)nc23)cc1 [Compound 40, 3-(4-(4-Fluorophenyl)-1H-imidazo[4,5-c]pyridin-2-yl)-5-(5-(pyrrolidin-1-ylmethyl)pyridin-3-yl)-1H-pyrazolo[3,4-c]pyridine] | > 10000 nM | ≥ 9990 nM
O=C(Nc1cncc(-c2cc3c(-c4nc5c(-c6ccc(F)cc6)nccc5[nH]4)n[nH]c3cn2)c1)C1CCC1 [Compound 46, N-(5-(3-(4-(4-Fluorophenyl)-1H-imidazo[4,5-c]pyridin-2-yl)-1H-pyrazolo[3,4-c]pyridin-5-yl)pyridin-3-yl)cyclobutanecarboxamide] | 61 nM | ≤ 9 nM
Fc1ccc(-c2nccc3[nH]c(-c4n[nH]c5cnc(-c6cncnc6)cc45)nc23)cc1 [Compound 52, 3-(4-(4-Fluorophenyl)-1H-imidazo[4,5-c]pyridin-2-yl)-5-(pyrimidin-5-yl)-1H-pyrazolo[3,4-c]pyridine] | 74.1 nM | 44 nM
CC(C)(C)C(=O)Nc1cncc(-c2cc3c(-c4nc5c(-c6ccccc6F)nccc5[nH]4)n[nH]c3cn2)c1 [Compound 60, N-(5-(3-(4-(2-Fluorophenyl)-1H-imidazo[4,5-c]pyridin-2-yl)-1H-pyrazolo[3,4-c]pyridin-5-yl)pyridin-3-yl)pivalamide] | 115 nM | 878 nM
CC(C)C(=O)Nc1cncc(-c2cc3c(-c4nc5c(-c6ccccc6F)nccc5[nH]4)n[nH]c3cn2)c1 [Compound 61, N-(5-(3-(4-(2-Fluorophenyl)-1H-imidazo[4,5-c]pyridin-2-yl)-1H-pyrazolo[3,4-c]pyridin-5-yl)pyridin-3-yl)isobutyramide] | 192 nM | 153 nM
O=C(Nc1cncc(-c2cc3c(-c4nc5c(-c6ccccc6F)nccc5[nH]4)n[nH]c3cn2)c1)C1CCCC1 [Compound 73, N-(5-(3-(4-(2-Fluorophenyl)-1H-imidazo[4,5-c]pyridin-2-yl)-1H-pyrazolo[3,4-c]pyridin-5-yl)pyridin-3-yl)cyclopentanecarboxamide] | 264 nM | 534 nM
CC(C)C(=O)Nc1cncc(-c2cc3c(-c4nc5c(-c6cccnc6)nccc5[nH]4)n[nH]c3cn2)c1 [Compound 87, N-(5-(3-(4-(Pyridin-3-yl)-1H-imidazo[4,5-c]pyridin-2-yl)-1H-pyrazolo[3,4-c]pyridin-5-yl)pyridin-3-yl)isobutyramide] | > 10000 nM | ≥ 9990 nM
CC(C)Nc1cncc(-c2cc3c(-c4nc5c(-c6cccnc6)nccc5[nH]4)n[nH]c3cn2)c1 [Compound 90, N-Isopropyl-5-(3-(4-(pyridin-3-yl)-1H-imidazo[4,5-c]pyridin-2-yl)-1H-pyrazolo[3,4-c]pyridin-5-yl)pyridin-3-amine] | 11.2 nM | ≤ 9 nM
Cc1ccncc1-c1cc2c(-c3nc4c(-c5ccncc5)nccc4[nH]3)n[nH]c2cn1 [Compound 109, 5-(4-Methylpyridin-3-yl)-3-(4-(pyridin-4-yl)-1H-imidazo[4,5-c]pyridin-2-yl)-1H-pyrazolo[3,4-c]pyridine] | 114 nM | ≥ 9990 nM
CCCC(=O)Nc1cncc(-c2cc3c(-c4nc5c(-c6ccncc6)nccc5[nH]4)n[nH]c3cn2)c1 [Compound 121, N-(5-(3-(4-(Pyridin-4-yl)-1H-imidazo[4,5-c]pyridin-2-yl)-1H-pyrazolo[3,4-c]pyridin-5-yl)pyridin-3-yl)butyramide] | > 10000 nM | ≥ 9990 nM
CC(C)CC(=O)Nc1cncc(-c2cc3c(-c4nc5c(-c6ccccn6)nccc5[nH]4)n[nH]c3cn2)c1 [Compound 132, 3-Methyl-N-(5-(3-(4-(pyridin-2-yl)-1H-imidazo[4,5-c]pyridin-2-yl)-1H-pyrazolo[3,4-c]pyridin-5-yl)pyridin-3-yl)butanamide] | 198 nM | 685 nM
CCNCc1cncc(-c2cc3c(-c4nc5c(-c6ccccn6)nccc5[nH]4)n[nH]c3cn2)c1 [Compound 136, N-((5-(3-(4-(Pyridin-2-yl)-1H-imidazo[4,5-c]pyridin-2-yl)-1H-pyrazolo[3,4-c]pyridin-5-yl)pyridin-3-yl)methyl)ethanamine] | 834 nM | ≤ 9 nM
O=C(Nc1cncc(-c2cc3c(-c4nc5c(-c6ccccn6)nccc5[nH]4)n[nH]c3cn2)c1)C1CCC1 [Compound 150, N-(5-(3-(4-(Pyridin-2-yl)-1H-imidazo[4,5-c]pyridin-2-yl)-1H-pyrazolo[3,4-c]pyridin-5-yl)pyridin-3-yl)cyclobutanecarboxamide] | 71.5 nM | 1050 nM
